According to patent US20230339882A1, “SHP2 INHIBITOR AND COMPOSITION AND APPLICATION THEREOF” (Betta Pharmaceuticals Co., Ltd., priority 2020, published 2023):

Assays:
[1] = In vitro metabolic stability in liver microsomes, rat; type: in vitro ADME; conditions: for microsomal CLint at 2 µM: pH 7.3, read-out: CLint (µL/min/mg protein) rat
Description: (§1) Example D: In Vitro Metabolic Stability of Human and Rat Liver Microsomes Test Buffer Preparation
(§2) Dissolve 1900 mg of MgCl2 in 400 mL of ultrapure water.
(§3) Dissolve 17.42 g K2HPO4 and 13.65 g KH2PO4 into 1000 mL of ultrapure water, respectively. Mix a certain proportion of K2HPO4 and KH2PO4 to adjust the pH to 7.30 ± 0.10.
(§4) Prepare a solution of 10 ng/mL labetalol and 10 ng/mL glyburide in acetonitrile and store at 4° C.
(§5) Prepare 10 mM verapamil (positive control) and test article stock solutions in DMSO. Then, with MeOH/ACN/H2O solution (1:1:2 by volume), diluted to 50 µM and 200 µM working solutions, respectively.
(§6) experiment procedure: • 1) Add 40 µL MgCl2 and 306 µL PBS to 96 wells (set blank control group, positive control group, test compound sample group, and negative control group at the same time) • 2) Add 4 µL of compound working solution to each well (4 µL of PBS buffer for blank group) (Note: the final concentration of DMSO volume in the system is ≤ 0.5%) • 3) Add 10 µL of liver microsomes (concentration: 20 mg/mL) to each well, mix well, and pre-incubate at 37° C. for 10 minutes. • 4) Add 40 µL of 10 mM NADPH working solution to each well to start the reaction (add equal volume of PBS buffer for blank control group and negative control group respectively), the total reaction volume is 400 µL. • 5) Take out 50 µL samples from the above reaction solution at 0, 5, 15, and 45 minutes, and add 400 µL of reaction stop solution to stop the reaction • 6) Shake the sample after the termination of the reaction on a shaker for 5 minutes. • 7) Centrifuge the sample at 3200 rcf for 10 minutes. After the centrifugation is complete, transfer 50 µL of the supernatant to 200 µL of H2O for dilution for LC-MS/MS analysis.
(§7) Calculations of t½ and CLint are performed using the first-order kinetic equations: […]
(§8) where k represents the elimination constant, calculated from a log-linear plot of percentage remaining versus time. t½ represents half-life. Cprotein is the concentration of liver microsomes.

[2] = In vitro metabolic stability in liver microsomes, dog; type: in vitro ADME; conditions: for microsomal CLint at 2 µM: dog, microsomes, pH 7.3
[3] = In vitro metabolic stability in liver microsomes, mouse; type: in vitro ADME; conditions: for microsomal CLint at 2 µM: pH 7.3, read-out: CLint (µL/min/mg protein) mouse
[4] = In vitro metabolic stability in liver microsomes, human; type: in vitro ADME; conditions: for microsomal CLint at 2 µM: pH 7.3, read-out: CLint (µL/min/mg protein) human
Description: as §1, §2, §3, §4, §5, §6, §7, §8

leukemia cells MV-4-11 = experiment: Cell proliferation assay, CELL TITER-GLO (CTG) luminescence, MV-4-11; type: cell-based
Description: (§9) Example B: Cell Proliferation Assay
(§10) The effects of the compounds of the invention on the proliferation of leukemia cells MV-4-11 and lung cancer cells NCI-H358 were evaluated using in vitro cell assays. The detection method used in the experiment is the CELL TITER-GLO (CTG) luminescence method, which can detect the number of viable cells by quantifying ATP. Because ATP participates in a variety of enzymatic reactions in vivo, it is an indicator of the metabolism of living cells, and its content directly reflects the number and state of cells. During the experiment, CellTiter-Glo™ reagent was added to the cell culture medium to measure the luminescence value. The value is proportional to the amount of ATP, and ATP is positively related to the number of living cells, so the cell viability can be examined by detecting the ATP content.
(§11) experiment procedure: • (1) Cell plating: • Take a bottle of MV-4-11 cells in logarithmic growth phase, resuspend the cells by centrifugation and count them. After adjusting the cell density, they were seeded into a 96-well plate (Corning #3917). After culturing in a 5% CO2 incubator for 24 hrs, the compound of the present invention was added for treatment; • Take a bottle of NCI-H358 cells in logarithmic growth phase, digest and resuspend the cells, count them, adjust the cell density, and inoculate them into a 96-well transparent ultra-low adsorption cell culture plate (Corning #3474), inoculate 2000 cells per well. The plate was placed in an incubator at 37° C. and 5% CO2 for 24 hrs, and then the compound of the present invention was added for treatment; • (2) Cell compound treatment: • An appropriate amount of the compound of the present invention was prepared for cell treatment. The final concentration of the compound from high to low was 1000 nM, 333.3 nM, 111.1 nM, 37.04 nM, 12.35 nM, 4.115 nM, 1.372 nM, 0.4572 nM, 0.1524 nM, and 0 nM. The plate was placed in a 37° C., 5% CO2 incubator for 120 hrs. Only adding medium without cell wells was set as the blank group; the group with compound concentration of 0 nM was the zero-adjusting group. • (3) CTG detection: • After NCI-H358 cells were cultured for 96 hrs, 50 µL of CellTiter-Glo® Luminescent Cell Viability Assay solution was added to each well, shaken gently for 2 mins, and incubated at room temperature for 10 mins. The cell reaction system was transferred to a white-bottomed 96-well plate. Read the detection value of each well on a multi-function microplate reader. • After MV-4-11 cells were cultured for 120 hrs, 50 µL of CellTiter-Glo® Luminescent Cell Viability Assay solution was added to each well, gently shaken for 2 mins, and incubated at room temperature for 10 mins. Check the value. • (4) Data analysis: • Calculate the inhibition rate from the luminescence value readings, • [formula]
(§12) The log(inhibitor) vs. response-Variable slope of GraphPad Prism was fitted to dose-response curves and IC50s of compounds that inhibited cell proliferation were calculated.

[5] = In vitro metabolic stability in liver microsomes, monkey; type: in vitro ADME; conditions: for microsomal CLint at 2 µM: pH 7.3, read-out: CLint (µL/min/mg protein) monkey
[6] = tested on: lung cancer cells NCI-H358; experiment: Cell proliferation assay, CELL TITER-GLO (CTG) luminescence, NCI-H358; type: cell-based; conditions: cultured for 96 hrs
Description: as §9, §10, §11, §12

SHP2 = SHP2 (Homo sapiens (Human), UniProt Q06124); experiment: SHP2 allosteric inhibitory enzyme activity assay (DiFMUP fluorescence); type: biochemical; conditions: read-out: SHP2 enzymatic activity IC50
Source text: Example A: SHP2 Allosteric Inhibitory Enzyme Activity Assay
SHP2 is allosterically activated by binding of a bis-tyrosyl-phosphorylated peptide to its Src homology 2 (SH2) domain. This later activation step results in the release of the autoinhibitory interface of SHP2, which in turn activates the SHP2 protein tyrosine phosphatase (PTP) and is available for substrate recognition and reaction catalysis. The catalytic activity of SHP2 was monitored using the surrogate DiFMUP in a rapid fluorescence assay format.
experiment procedure: • (1) Compound preparation: • The compounds of the present invention (10 mM stock solution) were diluted to appropriate times with 100% DMSO, and the final test concentrations of the compounds of the present invention were 10 µM, 3.3333 µM, 1.1111 µM, 0.3704 µM, 0.1235 µM, 0.0412 µM, 0.0137 µM, 0.0046 µM, 0.0015 µM, 0.00 µM; • (2) Prepare the enzyme reaction working solution: • Perform SHP2 enzymatic assays in 96-well black polystyrene plates (flat bottom, low flange, non-binding surface) (Perki Elmer, Cat#6005270) at room temperature using a final reaction volume of 50 µL and the following assay buffer conditions: 60 mM HEPES, 75 mM NaCl, 75 mM KCl, 0.05% BRIJ-35, 1 mM EDTA, 5 mM DTT. • (3) Enzyme-catalyzed reaction and data monitoring: • Add the compound of the present invention to the corresponding 96-well plate, and set the blank test well without compound and enzyme only with buffer. Thaw SHP2 Activating Peptide (IRS1_pY1172(dPEG8)pY1222) on ice, add 25 µM to each well, then add 0.2 ng of SHP2 protein sample to the corresponding well plate and incubate at room temperature for 1 hour. The surrogate substrate DiFMUP (Invitrogen, Cat #D6567) was added to the reaction and allowed to react for 1 hour at room temperature. Fluorescence signals were monitored using a microplate reader (Envision, Perki Elmer) using excitation and emission wavelengths of 340 nm and […], respectively. • (4) Data analysis: • Calculation Formula: • [formula]
Among them: Conversion_sample is the conversion rate reading of the sample; Conversion_min is the average value of blank control wells, representing the conversion rate readings of wells without enzymatic activity; Conversion_max is the mean ratio of positive control wells, representing the conversion rate readings of wells without compound inhibition. The log(inhibitor) vs. response-Variable slope of the analysis software GraphPad Prism was used to fit the dose-response curve, and the IC50 value of the compound for the enzymatic activity was calculated.

[7] = Homo sapiens, MV4-11, cultured for 120 hrs
[8] = Homo sapiens, NCI-H358, ultra-low adsorption plate

Compound | microsomal CLint at 2 µM [1] [µL/min/mg] | microsomal CLint at 2 µM [2] [µL/min/mg] | microsomal CLint at 2 µM [3] [µL/min/mg] | microsomal CLint at 2 µM [4] [µL/min/mg] | IC50 (leukemia cells MV-4-11; [7]) [nM] | microsomal CLint at 2 µM [5] [µL/min/mg] | IC50 [6, 8] [nM] | IC50 (leukemia cells MV-4-11; cultured for 120 hrs) [nM] | IC50 ([6]; ultra-low adsorption plate) [nM] | IC50 (SHP2) [nM] | further results
N#Cc1ccc(OCC#Cc2cnc(N3CCC4(CC3)Cc3ccccc3[C@H]4N)c(CO)n2)cc1 [Compound A12, (S)-4-((3-(5-(1-amino-1,3-dihydrospiro[indene-2,4′-piperidin]-1′-yl)-6-(hydroxymethyl)pyrazin-2-yl)prop-2-yn-1-yl)oxy)benzonitrile] | 5.5 | 6.2 | 8.3 | 0.2 | 3.8 | 7.3 | 7.4 | – | – | – | –
N[C@@H]1c2ccccc2CC12CCN(c1ncc(C#CCOc3ccc(C(F)(F)F)cc3)nc1CO)CC2 [Compound A14, (S)-(3-(1-amino-1,3-dihydrospiro[indene-2,4′-piperidin]-1′-yl)-6-(3-(4-(trifluoromethyl)phenoxy)prop-1-yn-1-yl)pyrazin-2-yl)methanol] | 1.8 | 7.8 | 6.4 | 1.4 | – | 3.1 | – | – | – | – | –
Nc1ncc(OCC#Cc2cnc(N3CCC4(CC3)Cc3ccccc3[C@H]4N)c(CO)n2)cn1 [Compound A19, (S)-(3-(1-amino-1,3-dihydrospiro[indene-2,4′-piperidin]-1′-yl)-6-(3-( (2-Aminopyrimidine-5-yl)oxy)prop-1-yn-1-yl)pyrazin-2-yl)methanol] | 31.6 | 18.3 | 21.4 | 8.2 | – | 21.2 | – | – | – | – | –
N[C@@H]1c2ccccc2CC12CCN(c1ncc(C#CCOc3ccc4ccc(=O)[nH]c4c3)nc1CO)CC2 [Compound A24, (S)-7-((3-(5-(1-amino-1,3-dihydrospiro[indene-2,4′-piperidin]-1′-yl)-6-(hydroxymethyl)pyrazin-2-yl)prop-2-yn-1-yl)oxy)quinolin-2(1H)-one] | 11 | 8.8 | 8.3 | 1.6 | 1.3 | 9.9 | 1.5 | – | – | – | –
NC(=O)c1cccc(NCC#Cc2cnc(N3CCC4(CC3)Cc3ccccc3[C@H]4N)c(CO)n2)c1 [Compound A81, (S)-3-((3-(5-(1-amino-1,3-dihydrospiro[indene-2,4′-piperidin]-1′-yl)-6-(hydroxymethyl)pyrazin-2-yl)prop-2-yn-1-yl)amino)benzamide] | 18.4 | 13.5 | 11.5 | 14.2 | 1.8 | 4 | 6.3 | – | – | – | –
(S)-4-((3-(5-(1-amino-1,3-dihydro spiro[indene-2,4′-piperidin]-1′-yl)-6-(hydroxymethyl)pyrazin-2-yl)pr op-2-yn-1-yl)oxy)-N-picoline amide [Compound A40] | – | – | – | – | – | – | – | – | – | – | CLint (µL/min/mg protein) rat [1]: 11.7 µL/min/mg protein; CLint (µL/min/mg protein) dog ([2]; dog liver microsomes): 7.8 µL/min/mg protein; CLint (µL/min/mg protein) mouse [3]: 11.0 µL/min/mg protein; CLint (µL/min/mg protein) human [4]: 11.0 µL/min/mg protein; CLint (µL/min/mg protein) monkey [5]: 15.5 µL/min/mg protein
(S)-(3-(1-amino-1,3-dihydrospiro[ indene-2,4′-piperidin]-1′-yl)-6-(3-( 3,4-dimethoxyphenoxy)prop-1-yn-1-y 1)pyrazin-2-yl)methanol [Compound A11] | – | – | – | – | – | – | – | 2.6 | 6.3 | 1.5 | –
(S)-(3-(1-amino-1,3-dihydrospiro[ indene-2,4′-piperidin]-1′-yl)-6-(3-( 4-morpholinoloxy)prop-1-yn-1-yl )pyrazin-2-yl)methanol [Compound A20] | – | – | – | – | – | – | – | 12 | 14 | 3.8 | –
(S)-(3-(1-amino-1,3-dihydrospiro[ indene-2,4′-piperidin]-1′-yl)-6-(3-( benzo[d][1,3]dioxyol-5-oxy)prop-1-yn-1-yl)pyrazin-2-yl)methanol [Compound A28] | – | – | – | – | – | – | – | 6.1 | 7 | 1.5 | –
